From patent US12275729B2 (Merck Sharp & Dohme LLC, priority 2017, dated 2025) come the findings set out here.

Usually IC50 stands for the concentration needed to halve the response being measured.

Test [1] concerns the target T1, IDO1 (Homo sapiens, UniProt P14902). Briefly: IDO1 Cellular Assay in HeLa Cells Stimulated with IFNγ. It counts as cell-based. The note with it: read-out: Hela IC50.
The target in test [2] is T1, IDO1. Briefly: IDO1 Human Whole Blood Assay. It counts as cell-based. On the set-up: Human whole blood was drawn in sodium heparin coated tubes from healthy internal donors; from tissue; host or cells: human whole blood from healthy donors, stimulated with LPS and IFNγ. As to conditions: LPS and IFNγ stimulated. The protocol: IDO1 Human Whole Blood Assay
Compounds to be tested were serially diluted in ten 3-fold steps in DMSO starting from 10 mM. […] LPS and IFNγ was prepared in RPMI to a 10× of final conc. (1000 ng/mL), final concentration is 100 ng/mL.
Human whole blood was drawn in sodium heparin coated tubes from healthy internal donors. 240 μL of blood was transferred to each of the wells of a v-bottom 96 well plate. 30 μL of compound was transferred from intermediate dilution plate, and incubated for 15 min. 30 μL from stimulants was then transferred to blood and mixed thoroughly.
On day 2 isotope labeled standard of kynurenine and tryptophan was made in water at 1Ox concentration and 30 μL was added to the blood at […] final concentration. The assay plates were centrifuged at 300×G for 10 min with no brake to separate plasma from red blood cells. 60 μL of plasma samples was removed without disturbing red blood cells. Plasma was diluted with RPMI in 1:1 ratio and proteins were precipitated out with two volume of Acetonitrile. The plates were centrifuged at 4000×G for 60 min. 20 μL of supernatant was carefully transferred to a 384 well plate contain 40 μL of 0.1% formic acid in water and analyzed by LC/MS/MS.
LC/MS/MS analyses were performed using Thermo Fisher's LX4-TSQ Quantum Ultra system. This system consists of four Agilent binary high-performance liquid chromatography (HPLC) pumps and a TSQ Quantum Ultra triple quadrupole MS/MS instrument. For each sample, 5 μL were injected onto an Atlantis T3 column (2.1 mm×150 mm, […] particle size) from Waters. The mobile phase gradient pumped at 0.8 mL/min was used to elute the analytes from the column at 25° C. […] Mobile phase A consisted of 0.1% formic acid in water. Mobile phase B consisted of 0.1% of formic acid in acetonitrile. Data was acquired in positive mode using a HESI interface. The operational parameters for the TSQ Quantum Ultra instrument were a spray voltage of 4000 V, capillary temperature of 380° C., vaporizer temperature 400° C., shealth gas 60 arbitrary units, Aux gas 20 arbitrary units, tube lens 85 and collision gas 1.2 mTorr. […] The peak area was integrated by Xcalibur Quan software. The ratios between the kynurenine generated in the reaction and 2D6-Kynurenine spiked-in internal standard were used to generate percentage inhibition and IC50 values.

T1 sequence (P14902 whole entry): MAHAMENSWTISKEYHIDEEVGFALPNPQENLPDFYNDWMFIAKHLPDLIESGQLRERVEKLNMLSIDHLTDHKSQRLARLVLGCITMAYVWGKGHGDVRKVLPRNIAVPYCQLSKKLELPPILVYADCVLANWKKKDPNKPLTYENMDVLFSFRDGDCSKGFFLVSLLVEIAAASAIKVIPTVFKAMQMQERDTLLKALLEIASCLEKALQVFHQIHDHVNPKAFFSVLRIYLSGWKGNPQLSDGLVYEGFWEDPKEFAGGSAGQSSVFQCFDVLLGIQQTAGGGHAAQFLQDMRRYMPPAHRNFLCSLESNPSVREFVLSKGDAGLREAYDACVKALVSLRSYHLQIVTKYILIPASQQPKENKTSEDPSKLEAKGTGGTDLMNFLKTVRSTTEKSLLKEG

For the compound `O=C(NC1(c2ccc3c(n2)CCCN3c2ccnc(C3CC3)n2)CC1)c1ccc(F)cc1` [Example 307, 5-(2-cyclopropylpyrimidin-4-yl)-2-(1-(4-fluorobenzamido)cyclopropyl)-5,6,7,8-tetrahydro-1,5-naphthyridin-1-ium 2,2,2-trifluoroacetate], the IC50 came out at 0.89 nM in test [1] (about 48 hours) and 63 nM in test [2].
For `CC1(C(=O)N2CCCc3cc(C4(C(=O)Nc5ccc(F)cc5)CCC4)ccc32)CC1` [Example 104, N-(4-fluorophenyl)-1-[1-(1-methylcyclopropane-1-carbonyl)-1,2,3,4-tetrahydroquinolin-6-yl]cyclobutane-1-carboxamide] the same measures were 3.5 nM and 115 nM.
`O=C(OC1CC1)N1CCCc2nc(C3(C(=O)Nc4ccc(Cl)nc4)CC4(CC4)C3)ccc21` [Example 418, 2-(5-((6-chloropyridin-3-yl)carbamoyl)spiro[2.3]hexan-5-yl)-5-(cyclopropoxycarbonyl)-5,6,7,8-tetrahydro-1,5-naphthyridin-1-ium 2,2,2-trifluoroacetate]: the values for the IC50 in test [1] and in test [2] were 1.35 nM and 239 nM, respectively.
In the case of `Cc1nccc(N2CCCc3nc(C4(C(=O)Nc5ccc(F)cc5)CC(OCc5ccccc5)C4)ccc32)n1` (stereo not shown) [Example 423, 2-(3-(benzyloxy)-1-((4-fluorophenyl)carbamoyl)cyclobutyl)-5-(2-methylpyrimidin-4-yl)-5,6,7,8-tetrahydro-1,5-naphthyridin-1-ium 2,2,2-trifluoroacetate], the IC50 is 6.84 nM in test [1], 6.8 nM in test [1] (value in running text) and 26 nM in test [2].
For `CC(NC(=O)c1ccc(F)cc1)c1ccc2c(n1)CCCN2C(=O)OC(C)(C)C(F)(F)F` (stereo not shown) [Example 312], the half-inhibitory concentration (IC50) amounted to 9.87 nM in test [1] and 47 nM in test [2].
As for `COC(=O)N1CCCc2nc(C(C)NC(=O)c3ccc(Cl)cc3)ccc21` (stereo not shown) [Example 213, methyl 6-{1-[(4-chlorobenzene-1-carbonyl)amino]ethyl}-3,4-dihydro-1,5-naphthyridine-1(2H)-carboxylate], the IC50 in test [1] (about 48 hours) came out at 6.3 nM; in test [2], 393 nM.
For `O=C(C1CC1)N1CCc2nc(C3(C(=O)Nc4ccc(F)cc4)CCC3)ccc21` [Example 268, 1-[1-(cyclopropanecarbonyl)-2,3-dihydro-1H-pyrrolo[3,2-b]pyridin-5-yl]-N-(4-fluorophenyl)cyclobutane-1-carboxamide] the same measures were 7.9 nM and 325 nM.
For `Cc1nccc(N2CCCc3nc(C4(NC(=O)c5ccc(Br)cc5)CC4)ccc32)n1` [Example 301, 4-bromo-N-(1-(5-(2-methylpyrimidin-4-yl)-5,6,7,8-tetrahydro-1,5-naphthyridin-2-yl)cyclopropyl)benzamide] the same measures were 1.69 nM and 21 nM.
Taken in the same sequence, the figures for `CC(NC(=O)c1ccc(Cl)cc1)c1ccc2c(n1)CCCN2C(=O)c1cc(C(F)F)ccn1` (stereo not shown) [Example 289, 4-chloro-N-(1-(5-(4-(difluoromethyl)picolinoyl)-5,6,7,8-tetrahydro-1,5-naphthyridin-2-yl)ethyl)benzamide] were 2.7 nM and 17 nM.
Take `CC(NC(=O)c1ccc(Cl)cc1)c1ccc2c(n1)CCCN2c1ccnc(C(F)(F)F)n1` (stereo not shown) [Example 345, 4-chloro-N-(1-(5-(2-(trifluoromethyl)pyrimidin-4-yl)-5,6,7,8-tetrahydro-1,5-naphthyridin-2-yl)ethyl)benzamide]: the results for the IC50 in test [1] and in test [2] were 1.72 nM and 32 nM, respectively.
Taken in the same sequence, the figures for `Cc1nccc(N2CCCc3nc(C(C)C(=O)Nc4ccc(Cl)cc4)ccc32)n1` (stereo not shown) [Example 363, N-(4-chlorophenyl)-2-(5-(2-methylpyrimidin-4-yl)-5,6,7,8-tetrahydro-1,5-naphthyridin-2-yl)propanamide] were 0.93 nM and 178 nM.
Turning to `C[C@H](C(=O)Nc1ccc(F)cc1)c1ccc2c(c1)CCCN2C(=O)c1cccc(Cl)c1` (single isomer, unassigned) [Example 52], the IC50 is 4.9 nM in test [1] (about 48 hours) and 372 nM in test [2].
For `C[C@H](C(=O)Nc1ccc(F)cc1)c1ccc2c(c1)CCCN2C(=O)C1CCOCC1` [Example 81, (2S)-N-(4-fluorophenyl)-2-[1-(oxane-4-carbonyl)-1,2,3,4-tetrahydroquinolin-6-yl]propanamide] the same measures were 4.8 nM and 99 nM.
For `Cc1nccc(N2CCCc3nc(C4(C(=O)Nc5ccc(Cl)cc5)COC4)ccc32)n1` [Example 394, N-(4-chlorophenyl)-3-(5-(2-methylpyrimidin-4-yl)-5,6,7,8-tetrahydro-1,5-naphthyridin-2-yl)oxetane-3-carboxamide] the same measures were 1.93 nM and 7 nM.
With `CC(C(=O)Nc1ccc(F)cc1)c1ccc2c(n1)CCCN2c1ccnc(C(F)(F)F)n1` (stereo not shown) [Example 364, N-(4-fluorophenyl)-2-(5-(2-(trifluoromethyl)pyrimidin-4-yl)-5,6,7,8-tetrahydro-1,5-naphthyridin-2-yl)propanamide], the IC50 in test [1] came out at 4.99 nM; in test [2] it was 198 nM.
Consider `CC(C(=O)Nc1ccc(F)cc1)c1ccc2c(c1)CCCN2Cc1cccc(Cl)c1` (racemic) [Example 224, 2-{1-[(3-chlorophenyl)methyl]-1,2,3,4-tetrahydroquinolin-6-yl}-N-(4-fluorophenyl)propanamide], for which the IC50 stood at 7.9 nM in test [1] (about 48 hours) and 545 nM in test [2].
With `CC(NC(=O)c1ccc(F)cc1)c1ccc2c(n1)CCCN2C(=O)OCCCc1ccncc1` (stereo not shown) [Example 322, 3-(pyridin-4-yl)propyl 6-(1-(4-fluorobenzamido)ethyl)-3,4-dihydro-1,5-naphthyridine-1(2H)-carboxylate], the figures for the IC50 in test [1] and in test [2] were 453 nM and 58 nM, respectively.
Take `O=C(OC1CC1)N1CCc2cc(C3(C(=O)Nc4ccc(Cl)cc4)CCC3)ccc21` [Example 273, cyclopropyl 5-{1-[(4-chlorophenyl)carbamoyl]cyclobutyl}-2,3-dihydro-1H-indole-1-carboxylate]: the IC50 in test [1] (about 48 hours) came to 2 nM; in test [2], 90 nM.
On to `C[C@H](NC(=O)c1ccc(Cl)cc1)c1ccc2c(n1)OCCN2C(=O)c1cccc(Cl)c1` (single isomer, unassigned) [Example 254, 4-chloro-N-(1-(1-(3-chlorobenzoyl)-2,3-dihydro-1H-pyrido[2,3-b][1,4]oxazin-6-yl)ethyl)benzamide], for which the IC50 was 3.7 nM in test [1] (about 48 hours) and 263 nM in test [2].
Taken in the same sequence, the figures for `Cc1cccc(N2CCCc3nc(C4(NC(=O)c5ccc(Cl)cc5)CCC4)ccc32)n1` [Example 405, 4-chloro-N-(1-(5-(6-methylpyridin-2-yl)-5,6,7,8-tetrahydro-1,5-naphthyridin-2-yl)cyclobutyl)benzamide] were 1.91 nM and 42 nM.
For the compound `C[C@@H](NC(=O)c1ccc(F)cc1)c1ccc2c(n1)CCCN2C(=O)[C@H]1CCCO1` [Example 145, 4-fluoro-N-[(1R)-1-{5-[(2R)-oxolane-2-carbonyl]-5,6,7,8-tetrahydro-1,5-naphthyridin-2-yl}ethyl]benzamide], the IC50 in test [1] (about 48 hours) came out at 8 nM; in test [2] it was 125 nM.
For `Cc1nccc(N2CCCc3nc(C(C)(C)C(=O)Nc4ccc(F)cc4)ccc32)n1` [Example 389, N-(4-fluorophenyl)-2-methyl-2-(5-(2-methylpyrimidin-4-yl)-5,6,7,8-tetrahydro-1,5-naphthyridin-2-yl)propanamide] the same measures were 2.92 nM and 44 nM.
For `O=C(Nc1ccc(F)cc1)C1(c2ccc3c(n2)CCCN3c2ccnc(C3CC3)n2)CCC1` [Example 401, 1-(5-(2-cyclopropylpyrimidin-4-yl)-5,6,7,8-tetrahydro-1,5-naphthyridin-2-yl)-N-(4-fluorophenyl)cyclobutane-1-carboxamide], the IC50 in test [1] (about 48 hours) is 1.87 nM; in test [2], 4 nM.
For `CCn1ccc(N2CCCc3cc(C4(C(=O)Nc5ccc(F)cn5)CCC4)ccc32)n1` [Example 232, 1-[1-(1-ethyl-H-pyrazol-3-yl)-1,2,3,4-tetrahydroquinolin-6-yl]-N-(5-fluoropyridin-2-yl)cyclobutane-1l-carboxamide] the same measures were 5.4 nM and 557 nM.
